Reference: patent US9139532B2, “Pyrazolyl guanidine F1F0-atpase inhibitors and therapeutic uses thereof” (Lycera Corporation, priority 2010, dated 2015)
Like-named read-outs stand apart in the source and are kept apart here.

Tests used:
[1] = test system: Ramos cells; assay: Cytotoxicity in Ramos cells; type: cell-based; conditions: cytotoxicity in Ramos cells, read-out: Ramos Cell EC50
[2] = molecular target: T1, F1F0-ATPase (Bos taurus, UniProt P13621); assay: Inhibition of F1F0-ATPase activity in synthesizing ATP; type: biochemical; conditions: inhibition of ATP synthesis by F1F0-ATPase; read-out: ATP Syn IC50
T1 construct: from tissue

Row | SMILES | IC50 [2] | EC50 [1] | EC50 ([1]; Homo sapiens)
1 | COc1ccc(-c2cc(N/C(=N\C(=O)c3ccc(Cl)c(F)c3)Nc3cc(F)cc(Cl)c3)n[nH]2)cc1 [Compound A-148] | > 10 µM | > 10 µM | 
2 | O=C(/N=C(\Nc1cc(-c2ccc(F)cc2)[nH]n1)N1CCCC1)c1ccc(F)cc1 [Compound A-156] | > 10 µM | > 10 µM | 
3 | COc1ccccc1C(=O)/N=C(\Nc1cc(-c2ccc(F)cc2)[nH]n1)NC(C)(C)C [Compound A-157] | > 10 µM | > 10 µM | 
4 | O=C(/N=C(\Nc1cc(-c2ccc(CO)cc2)[nH]n1)NC1CCCC1)c1ccc(F)c(F)c1 [Compound A-158] | > 10 µM | > 10 µM | 
5 | CC(C)CN/C(=N/C(=O)c1ccc(F)c(F)c1)Nc1[nH]nc(-c2ccc(Cl)cc2)c1F [Compound A-161] | > 10 µM | > 10 µM | 
6 | COc1cccc(C(=O)/N=C(/NCC(C)C)Nc2cc(-c3ccc(Cl)cc3)[nH]n2)c1 [Compound A-169] | < 10 µM | < 10 µM | 
7 | CCC(C)N/C(=N/C(=O)c1cccc(OC)c1)Nc1cc(-c2ccc(Cl)cc2)n[nH]1 (stereo not shown) [Compound A-170] | < 10 µM |  | < 10 µM
8 | COc1cccc(C(=O)/N=C(/NCC(C)C)Nc2cc(-c3ccc(F)cc3)[nH]n2)c1 [Compound A-171] | < 10 µM | < 10 µM | 
9 | CCC(C)N/C(=N/C(=O)c1cccc(OC)c1)Nc1cc(-c2ccc(F)cc2)n[nH]1 (stereo not shown) [Compound A-172] | < 10 µM |  | < 10 µM
10 | COC(=O)Cc1ccc(N/C(=N/C(=O)c2ccc(F)cc2)Nc2cc(C(F)(F)F)n[nH]2)cc1 [Compound A-173] | < 10 µM |  | < 10 µM
11 | CCc1cc(C(=O)/N=C(\Nc2cc(-c3ccc(F)cc3)n[nH]2)NC(C)CC)ccn1 (stereo not shown) [Compound A-174] | < 10 µM |  | < 10 µM
12 | CCOCCCN/C(=N/C(=O)c1ccnc(CC)c1)Nc1cc(-c2ccc(F)cc2)[nH]n1 [Compound A-175] | < 10 µM | > 10 µM | 
13 | CCc1cc(C(=O)N=C(NCC(C)C)Nc2cc(-c3ccc(F)cc3)n[nH]2)ccn1 [Compound A-176] | < 10 µM |  | < 10 µM
14 | CCc1cc(C(=O)/N=C(\Nc2cc(-c3ccc(F)cc3)[nH]n2)NC(C)(C)C)ccn1 [Compound A-177] | < 10 µM | < 10 µM | 
15 | CCC(C)N/C(=N/C(=O)c1ccc(Cl)c(F)c1)Nc1cc(C)n[nH]1 (stereo not shown) [Compound A-178] | < 10 µM |  | < 10 µM
16 | Cc1cc(NC(=NC(=O)c2ccc(Cl)c(F)c2)NCCC(F)(F)F)[nH]n1 [Compound A-179] | > 10 µM |  | > 10 µM
17 | CCOC[C@H](C)N/C(=N/C(=O)c1ccc(Cl)c(F)c1)Nc1cc(C)[nH]n1 [Compound A-180] | < 10 µM | > 10 µM | 
18 | Cc1cc(NC(=NC(=O)c2ccc(Cl)c(F)c2)NC(C)(C)C)[nH]n1 [Compound A-181] | < 10 µM |  | < 10 µM
19 | COc1ccc(C(=O)/N=C(/NCC(C)C)Nc2cc(-c3ccc(F)cc3)[nH]n2)cn1 [Compound A-182] | < 10 µM | < 10 µM | 
20 | Cc1cc(N/C(=N\C(=O)c2ccc(C(F)(F)F)cc2)NCCC(F)(F)F)n[nH]1 [Compound A-183] | < 10 µM | < 10 µM | 
21 | CCOCCCN/C(=N/C(=O)c1ccc(C(F)(F)F)cc1)Nc1cc(C)[nH]n1 [Compound A-184] | > 10 µM | > 10 µM | 

Row | SMILES | IC50 [2] | EC50 [1] | EC50 ([1]; Homo sapiens)
22 | Cc1cc(N/C(=N\C(=O)c2ccc(C(F)(F)F)cc2)NC2CCCC2)n[nH]1 [Compound A-185] | < 10 µM | < 10 µM | 
23 | Cc1cc(N/C(=N\C(=O)c2ccc(F)c(F)c2)NCCC(F)(F)F)n[nH]1 [Compound A-186] | > 10 µM | > 10 µM | 
24 | Cc1cc(N/C(=N\C(=O)c2ccc(F)c(F)c2)NCC(C)(C)C)n[nH]1 [Compound A-187] | < 10 µM | < 10 µM | 
25 | Cc1cc(N/C(=N\C(=O)c2ccc(F)c(F)c2)NC2CCCC2)n[nH]1 [Compound A-188] | < 10 µM | > 10 µM | 
26 | Cc1cc(N/C(=N\C(=O)c2ccc(C(F)(F)F)cc2)NCC(C)C)n[nH]1 [Compound A-189] | < 10 µM | < 10 µM | 
27 | Cc1cc(N/C(=N\C(=O)c2ccc(C(F)(F)F)cc2)NC(C)C)n[nH]1 [Compound A-190] | > 10 µM | > 10 µM | 
28 | Cc1cc(N/C(=N\C(=O)c2ccc(F)c(F)c2)NCC(C)C)n[nH]1 [Compound A-191] | > 10 µM | > 10 µM | 
29 | Cc1cc(N/C(=N\C(=O)c2ccc(F)c(F)c2)NC(C)(C)C)n[nH]1 [Compound A-192] | < 10 µM | < 10 µM | 
30 | O=C(/N=C(\Nc1cc(-c2ccc(F)cc2)[nH]n1)NC1CC1)c1ccc(F)cc1 [Compound A-193] | < 10 µM | > 10 µM | 
31 | Cc1ccc(-c2cc(N/C(=N\C(=O)c3ccc(C(F)(F)F)cc3)NC3CC3)[nH]n2)cc1F [Compound A-195] | < 10 µM | < 10 µM | 
32 | CC1(CN/C(=N/C(=O)c2ccc(F)cc2)Nc2cc(-c3ccc(F)cc3)n[nH]2)COC1 [Compound A-196] | < 10 µM | < 10 µM | 
33 | O=C(/N=C(\Nc1cc(-c2cc(F)cc(F)c2)n[nH]1)NC1COC1)c1ccc(F)c(F)c1 [Compound A-197] | < 10 µM | < 10 µM | 
34 | O=C(/N=C(\Nc1cc(-c2cc(F)cc(F)c2)n[nH]1)NC1CC1)c1ccc(F)c(F)c1 [Compound A-198] | < 10 µM | < 10 µM | 
35 | O=C(/N=C(\Nc1cc(-c2ccc(F)cc2)n[nH]1)NC1COC1)c1ccc(F)c(F)c1 [Compound A-199] | < 10 µM | > 10 µM | 
36 | CC1(CN/C(=N/C(=O)c2ccc(F)c(F)c2)Nc2cc(-c3ccc(F)cc3)n[nH]2)COC1 [Compound A-200] | < 10 µM | > 10 µM | 
37 | CC1(CN/C(=N/C(=O)c2cccc(F)c2)Nc2cc(-c3ccc(F)cc3)n[nH]2)CCCO1 (stereo not shown) [Compound A-201] | < 10 µM | > 10 µM | 
38 | O=C(/N=C(\Nc1cc(-c2ccc(F)cc2)n[nH]1)NC1CC1)c1cccc(F)c1 [Compound A-202] | < 10 µM | > 10 µM | 
39 | CCC(C)N/C(=N/C(=O)c1ccc(F)cc1)Nc1cc(-c2ccc(C)c(F)c2)n[nH]1 (stereo not shown) [Compound A-203] | < 10 µM |  | < 10 µM
40 | COC[C@H](C)N/C(=N/C(=O)c1ccc(F)cc1)Nc1cc(-c2ccc(C)c(F)c2)n[nH]1 [Compound A-205] | < 10 µM |  | < 10 µM
41 | CCC(C)N/C(=N/C(=O)c1ccc(F)cc1)Nc1cc(-c2ccc(F)cc2)n[nH]1 (stereo not shown) [Compound A-206] | < 10 µM |  | < 10 µM

Continued, in another order:

Row | IC50 [2] | SMILES | EC50 [1] | EC50 ([1]; Homo sapiens)
42 | < 10 µM | O=C(/N=C(/NCc1ccc(F)cc1Cl)Nc1cc(-c2ccc(F)cc2)[nH]n1)c1ccc(Cl)c(F)c1 [Compound A-142] | < 10 µM | 
43 | < 10 µM | O=C(/N=C(/NCc1ccc(F)cc1Cl)Nc1cc(-c2ccccc2)[nH]n1)c1ccc(Cl)c(F)c1 [Compound A-143] | < 10 µM | 
44 | < 10 µM | O=C(/N=C(/Nc1cc(F)cc(Cl)c1)Nc1cc(-c2cccs2)[nH]n1)c1ccc(Cl)c(F)c1 [Compound A-144] | < 10 µM | 
45 | < 10 µM | O=C(/N=C(/Nc1cc(F)cc(Cl)c1)Nc1cc(-c2ccc(F)cc2)[nH]n1)c1ccc(Cl)c(F)c1 [Compound A-145] | < 10 µM | 
46 | < 10 µM | O=C(/N=C(/Nc1cc(F)cc(Cl)c1)Nc1cc(C2CC2)[nH]n1)c1ccc(Cl)c(F)c1 [Compound A-146] | < 10 µM | 
47 | < 10 µM | O=C(/N=C(/Nc1cc(F)cc(Cl)c1)Nc1cc(C2CCC2)[nH]n1)c1ccc(Cl)c(F)c1 [Compound A-147] | < 10 µM | 
48 | < 10 µM | O=C(N=C(Nc1cc(F)cc(Cl)c1)Nc1cc(-c2ccc(Cl)cc2)n[nH]1)c1ccc(Cl)c(F)c1 [Compound A-149] |  | < 10 µM
49 | < 10 µM | Cc1ccc(-c2cc(N/C(=N\C(=O)c3ccc(Cl)c(F)c3)Nc3cc(F)cc(Cl)c3)n[nH]2)cc1 [Compound A-150] | < 10 µM | 
50 | < 10 µM | O=C(/N=C(/Nc1cc(F)cc(Cl)c1)Nc1cc(-c2ccccc2)[nH]n1)c1ccc(C(F)(F)F)cc1 [Compound A-151] | > 10 µM | 
51 | < 10 µM | CC(C)(C)NC(=NC(=O)c1ccc(Cl)c(F)c1)Nc1cc(-c2ccc(F)cc2)n[nH]1 [Compound A-152] |  | < 10 µM
52 | < 10 µM | CC(C)(C)NC(=NC(=O)c1ccc(C(F)(F)F)cc1)Nc1cc(-c2ccccc2)[nH]n1 [Compound A-153] |  | < 10 µM
53 | < 10 µM | O=C(/N=C(/Nc1cc(F)cc(Cl)c1)Nc1cc(-c2ccc(F)cc2)[nH]n1)c1ccc(C(F)(F)F)cc1 [Compound A-154] | < 10 µM | 
54 | < 10 µM | Cc1cc(N/C(=N\C(=O)c2ccc(C(F)(F)F)cc2)NCC(C)(C)C)n[nH]1 [Compound A-155] | < 10 µM | 
55 | < 10 µM | CC(C)(C)N/C(=N/C(=O)c1ccc(F)c(F)c1)Nc1cc(-c2ccc(CO)cc2)[nH]n1 [Compound A-159] | < 10 µM | 
56 | < 10 µM | CCOCCCN/C(=N/C(=O)c1ccc(F)c(F)c1)Nc1[nH]nc(-c2ccc(Cl)cc2)c1F [Compound A-160] | > 10 µM | 
57 | < 10 µM | CC(C)(C)N/C(=N/C(=O)c1ccc(F)c(F)c1)Nc1[nH]nc(-c2ccc(Cl)cc2)c1F [Compound A-162] | < 10 µM | 
58 | < 10 µM | CC(C)CNC(=NC(=O)c1ccc(N2CCOCC2)nc1)Nc1cc(-c2ccc(F)cc2)n[nH]1 [Compound A-163] |  | < 10 µM
59 | < 10 µM | CC(C)(C)N/C(=N/C(=O)c1ccc(N2CCOCC2)nc1)Nc1cc(-c2ccc(F)cc2)[nH]n1 [Compound A-164] | < 10 µM | 
60 | < 10 µM | CC(C)CN/C(=N/C(=O)c1cccnc1C(F)(F)F)Nc1cc(-c2ccc(F)cc2)[nH]n1 [Compound A-166] | < 10 µM | 
61 | < 10 µM | CC(C)(C)N/C(=N/C(=O)c1cccnc1C(F)(F)F)Nc1cc(-c2ccc(F)cc2)[nH]n1 [Compound A-167] | < 10 µM | 
62 | < 10 µM | COc1cccc(C(=O)/N=C(/Nc2cc(F)cc(Cl)c2)Nc2cc(-c3ccc(Cl)cc3)[nH]n2)c1 [Compound A-168] | < 10 µM | 
